The record followed here is US8236858B2, “Substituted aryl-indole compounds and their kynurenine/kynuramine-like metabolites as therapeutic agents” (Neurim Pharmaceuticals (1991) Ltd., priority 2006, dated 2012).

The target in experiment [1] is T1, GSK3β (Homo sapiens, UniProt P49841).
T1 construct: made in house; host or cells: insect Sf9 cells
Put plainly: Evaluation of GSK3β activity: inhibition of purified GSK3β, [γ-32P]ATP / GS-2 peptide filter assay. The following applies: for IC50: purified GSK3β expressed in Sf9 cells, 15 μM ATP, GS-2 peptide substrate, 30 min at 30° C.; for inhibiting activity on GSK3β activity (in words): summary of Table 1. The class given is biochemical. As to the method:
Compounds were evaluated for inhibition against purified GSK3β. GSK3β was expressed in and purified from insect Sf9 cells. Compounds (10 μM) were assayed; following a 1/100 dilution of the enzyme in 1 mg/ml BSA, 10 mM DTT, with 5 μl of 40 μM GS-2 peptide as a substrate, in a buffer, in the presence of 15 μM [γ-^32P]ATP (3000 Ci/mmol; 1 mCi/ml) in a final volume of 30 μl. After 30-min incubation at 30° C., 25-μl aliquots of supernatant were spotted onto 2.5×3 cm pieces of Whatman P81 phosphocellulose paper, and, 20 s later, the filters were washed five times (for at least 5 min each time) in a solution of 10 ml of phosphoric acid/liter of water. The wet filters were counted in the presence of 1 ml of scintillation fluid.

Experiment [2] deals with NMDA-activated currents. The experiment can be described thus: Electrophysiological characterisation of NMDA-activated currents in freshly isolated hippocampal neurones (whole-cell patch clamp). The class given is cell-based, Wistar rats. The following applies: for % Inhibition Peak Current / % Inhibition Steady State Current: 1 μM substance, 10 μM glycine, 300 μM L-aspartate, holding potential −70 mV, mean of at least 4 cells; for blocking activity on NMDA-activated currents (in words): summary of Table 3, 1 μM. As to the method:
Isolation of hippocampal neurons: Wistar rats (12-14 days) were decapitated without anesthesia and the hippocampus was removed. It was manually cut into slices (0.2-0.4 mm), in a solution containing (mM): 150 NaCl; 5 KCL; 1.25 NaH2PO4; 2 CaCl2; 2 MgCl2; 26 NaHCO3; 20 glucose. Slices were preincubated in this solution for 30 min at room temperature. The enzymatic treatment proceeded in the same solution with lower Ca^2+ concentration (0.5 mm) containing 0.4 mg/ml protease from aspergillus oryzae. The incubation in the enzyme solution proceeded at 32° C. within 10 min. Slices were kept subsequently in enzyme-free solution containing normal Ca^2±concentration and used within 6-8 h for obtaining isolated neurons. Throughout the entire procedure the solutions were continuously saturated with a 95% O2 and 5% CO2 gas mixture to maintain pH of 7.4. For cell dissociation the slice was transferred into the extracellular solution containing (mM): 150 NaCl; 5 KCl; 2 CaCl2; 10 n-2-hydroxyethylpiperazine-n′-2-ethanesulphonic acid (Hepes); pH adjusted with NaOH to 7.4. Single cells were isolated from CA and CA3 zones of hippocampal slices by vibrodissociation method. […] After isolation they were usually suitable for the recording for 1-2 h.
Salines and chemicals: The contents of the extracellular solution was as follows (in mM): 130 NaCl, 5KCl, 2CaCl2, 20 n-2-hydroxyethylpiperazine-n′-2-ethansulfonic acid (Hepes); 0.1 μm TTX, 10 μm glycine, […] 1-aspartate; pH was adjusted with NaOH to 7.4.
The contents of the intracellular solution were as follows (in mM): 110 CsF, 20 Tris-HCl (pH=7.2). L-aspartate and glycine solutions were prepared on the day of experiment.
The tested substances were dissolved in DMSO.
Current recording and data analysis: The drug-containing solutions were applied by the fast “concentration clamp” method using “jumping table” set-up. The currents were recorded with patch clamp technique in the whole-cell configuration. Recording of the currents was performed using EPC-7 L/M patch-clamp amplifier.
NMDA-activated currents: The currents were filtered at 3 kHz (three-pole active Bessel filter) digitally sampled at the rate 6000 μs per point for NMDA activated currents. NMDA-induced transmembrane currents were measured in the presence of 10 μM glycine and 300 μM L-aspartate in the control and test solutions. The currents were recorded at holding potential −70 mV.
Calculations: The inhibition of current at 1 μM of the substance was averaged at least for 4 cells. The effect of substance was measured as the mean ratio I/Io where I was the current under the action of substance and Io was the current in control conditions.

Experiment [3] concerns MPTP-treated mice. The experiment can be described thus: Anti-Parkinsonian activity in MPTP-treated mice with a sub threshold dose of L-DOPA (motor activity counts). The class given is in vivo, C57 BL/6 mice. The following applies: for LOCOMOTION / REARING / TOTAL ACTIVITY: MPTP-treated mice (2×40 mg/kg s.c.), compound 3 mg/kg orally + 5 mg/kg L-Dopa s.c., counts with Vehicle (no MPTP) = 100%. As to the method:
Animals: six month old male C57 BL/6 mice, weighing 22-25 g were used. Following arrival at the laboratory, the mice were allowed to acclimatize for two weeks in a room with controlled temperature (21±1° C.), and a constant light-dark schedule (12 hr on/12 hr off, lights on between 06.00 and 18.00 hrs). Free access to food and water was maintained throughout. They were housed in groups of 12 animals and tested only during the hours of light (08.00-15.00 hrs). All testing was performed in a normally lighted room.
Behavioural measurements and apparatus: An automated device, consisting of macrolon rodent test cages (40×25×15 cm), each placed within two series of infra-red beams (at two different heights, one low and one high, 2 and 8 cm, respectively, above the surface of the sawdust, 1 cm deep), was used to measure spontaneous and/or drug-induced motor activity of 1-methyl 4-phenyl 1,2,3,6-tetrahydropyridine (MPTP) and control mice. The following parameters were measured: LOCOMOTION was measured by the low grid of infrared beams. Counts were registered only when the mouse in the horizontal plane, ambulating around the test-cage. REARING was registered throughout the time when at least one high level beam was interrupted, i.e. the number of counts registered was proportional to the amount of time spent rearing. TOTAL ACTIVITY was measured by a sensor (a pick-up similar to a gramophone needle, mounted on a lever with a counterweight) with which the test cage was constantly in contact. The sensor registered all types of vibration received from the test cage, such as those produced both by locomotion and rearing as well as shaking, tremors, scratching and grooming.
Behavioral measurements (locomotion, rearing and total activity): Twelve days after MPTP injections (2×40 mg/kg, s.c., 24 hr interval), the mice were administered orally with the different compounds at 3 mg/kg or vehicle (0.1% Tween-80 in 1% methylcellulose) and immediately thereafter placed in the activity test chambers and their motor behaviors were monitored for 60 min. After 60 min, the mice were injected with 5 mg/kg L-Dopa (s.c) and then replaced in the test chamber and activity measurements maintained for an additional 300 min.
Table 2 presents the locomotion, rearing and total activity counts of MPTP-treated and control mice administered either tested substances or vehicle administered with a sub threshold dose of L-Dopa.

T1 sequence (P49841 whole entry, species assumed): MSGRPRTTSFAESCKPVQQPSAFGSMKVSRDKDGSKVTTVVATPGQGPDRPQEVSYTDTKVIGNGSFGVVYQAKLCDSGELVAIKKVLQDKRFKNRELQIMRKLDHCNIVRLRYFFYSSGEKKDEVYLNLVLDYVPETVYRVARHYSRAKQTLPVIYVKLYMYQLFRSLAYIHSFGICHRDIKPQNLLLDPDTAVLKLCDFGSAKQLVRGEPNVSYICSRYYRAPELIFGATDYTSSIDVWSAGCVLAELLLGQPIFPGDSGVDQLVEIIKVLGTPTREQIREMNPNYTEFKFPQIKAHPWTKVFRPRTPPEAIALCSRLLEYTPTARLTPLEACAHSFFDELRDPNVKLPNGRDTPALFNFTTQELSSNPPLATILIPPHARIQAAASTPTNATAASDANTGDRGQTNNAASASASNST

The term IC50 denotes the concentration needed to halve the response being measured. Read a low IC50 as greater potency in that assay. As to `N#Cc1cc([N+](=O)[O-])ccc1NCCc1c[nH]c2ccccc12` [N-(2-cyano-4-nitrophenyl)-tryptamine], in experiment [1], the IC50 was found to be 12.7 µM and the “inhibiting activity on GSK3β activity (in words)” value (shortened to “inhibiting activity”) was “significant inhibiting activity”. For the same compound, in experiment [2], the “% Inhibition Peak Current” value is recorded as 83.1%, the “% Inhibition Steady State Current” value is recorded as 82.44% and the “blocking activity on NMDA-activated currents (in words)” value (“blocking activity” for short) was “significant blocking activity”. For the same compound, in experiment [3] (3 mg/kg, combined with a sub-threshold (inactive) dose of L-Dopa), the “reversal of the motor deficits of MPTP-treated mice (in words)” value was “significantly reversed the motor deficits”. Further, in experiment [3], the LOCOMOTION is on record as 52%, the REARING stood at 98% and the “TOTAL ACTIVITY” value is listed as 73%.
`COc1ccc2[nH]cc(CCNc3ccc(C#N)c(C#N)c3)c2c1` [N-(3,4-dicyanophenyl)-5-methoxytryptamine]: in experiment [1], inhibition was half-maximal at 16.8 µM (IC50) and the “inhibiting activity” value was “significant inhibiting activity”. Besides, in experiment [2], the “% Inhibition Peak Current” value was determined as 84.4%, the “% Inhibition Steady State Current” value turned out to be 78.4% and the “blocking activity” value is “significant blocking activity”. For the same compound, in experiment [3], the LOCOMOTION was determined as 19%, the REARING was found to be 27% and the “TOTAL ACTIVITY” value was 48%.
With `N#Cc1ccc(NCCc2c[nH]c3ccccc23)cc1C#N` [N-(3,4-dicyanophenyl)-tryptamine], in experiment [1], the IC50 was 14.8 µM and the “inhibiting activity” value is recorded as “significant inhibiting activity”. In addition, in experiment [2], the “% Inhibition Peak Current” value is given as 93.4%, the “% Inhibition Steady State Current” value was found to be 66.4% and the “blocking activity” value was “significant blocking activity”. In experiment [3], the LOCOMOTION stood at 18%, the REARING was determined as 25% and the “TOTAL ACTIVITY” value turned out to be 47%.
Turning to `COc1ccc2[nH]cc(CCNc3ccc(C(=O)O)cc3[N+](=O)[O-])c2c1` [N-(4-Carboxy-2-nitrophenyl)-5-methoxytryptamine], in experiment [1], the IC50 worked out at 21.7 µM and the “inhibiting activity” value is on record as “significant inhibiting activity”. In experiment [2], the “% Inhibition Peak Current” value stood at 89.92%, the “% Inhibition Steady State Current” value stood at 74.14% and the “blocking activity” value is listed as “significant blocking activity”. In experiment [3], the LOCOMOTION is on record as 22%, the REARING was 30% and the “TOTAL ACTIVITY” value was 46%.
